This test deals with T1, human α7 nAChR stably expressed in a HEK cell line (with human RIC-3) (Homo sapiens, UniProt P36544).
T1 construct: PrecisION hnAChR α7/RIC-3
In words: Automated patch-clamp electrophysiology functional assay (Assay A), IonFlux HT, whole-cell population patch. Type of test: cell-based. As for the experimental part: The α7 nAChR positive allosteric modulator (PAM) activity of the present compounds may be tested using assays known in the art. The α7 nAChR PAMs described herein have activities in an automated patch-clamp electrophysiology functional assay as described in the examples. The assay was performed using the IonFlux HT in a whole-cell, population patch configuration. See Golden et al. Assay Drug Dev. Technol. (2011) 9:608-619. The compounds were assessed for their ability to modulate the function of the human α7 nAChR stably expressed in a HEK cell line both in the presence, and in the absence of the natural α7 agonist acetylcholine. By performing a series of such measurements at different concentrations, the effective concentration of the α7 nAChR PAMs (EC50) was determined. See Spencer et al. Assay Drug Dev. Technol. (2012) 10:313-324.
Direct activation of α7 (agonism), and potentiation of 5 acetylcholine-evoked α7 currents was determined as follows:
Automated Patch-Clamp Electrophysiology Functional Assay (Assay A)
Automated patch-clamp electrophysiology was performed using the IonFlux HT (Fluxion Biosciences Inc., San Francisco, Calif.) in the whole-cell, population patch configuration. Test compounds were assessed for their ability to modulate the function of the α7 nicotinic acetylcholine receptor both in the presence, and in the absence of the natural α7 agonist acetylcholine. A HEK cell line stably expressing both human RIC-3 and human α7 (PrecisION hnAChR α7/RIC-3, Eurofins Pharma, St. Charles, Mo.) was cultured in 175 cm^2 triple-layer tissue culture flasks to no more than 90% confluency in DMEM/F-12 growth media supplemented with 10% heat-inactivated fetal bovine serum, 1% non-essential amino acids, 0.625 μg/mL Puromycin, and 400 μg/mL Geneticin. Immediately prior to assay, cells were detached by first aspirating growth media, rinsing with Dulbecco's phosphate buffered saline, and then adding 10 mL of Accutase (Innovative Cell Technologies, San Diego, Calif.) to the flask and then incubating at 37° C. for 5 minutes. Detached cells were then recovered by the addition of 40 mL of CHO-serum-free media supplemented with 25 mM HEPES, and rocked gently in a 50 mL conical tube for 20 minutes prior to patch-clamp assay. After recovery, cells were pelleted by centrifugation at 1,000 RPM for 1 minute in a compact bench top centrifuge; recovery media was aspirated and cells were resuspended in external recording solution (150 mM NaCl, 5 mM KCl, 2 mM CaCl2, 1 mM MgCl2, 10 mM HEPES, 12 mM dextrose) to a density of 5.0×10^6 cells/mL. The cell suspension was added to the cell inlet wells on an IonFlux HT population patch plate which had previously been rinsed and primed with deionized H2O. Test compounds were serially diluted in DMSO and then resuspended to the final test concentration in external recording solution, with, or without […] acetylcholine added to the external recording solution; test compounds were then transferred to the IonFlux HT population patch plate. Internal recording solution (110 mM TrisPO4, 28 mM TrisBase, 0.1 mM CaCl2, 2 mM MgCl2, 11 mM EGTA, 4 mM MgATP) was added to the internal recording solution inlet wells on the IonFlux HT patch plate previously loaded with cells and test compounds, and the plate loaded into the IonFlux HT instrument. A protocol was executed on the IonFlux HT to trap the cells, break into the cells, and establish the whole-cell recording configuration; cells were voltage-clamped at a holding potential of −60 mV for the duration of the experiment, all experiments were conducted at room temperature, and the IonFlux HT injection pressure was 8 psi for solution applications. Upon establishing the whole-cell configuration, external recording solution was perfused into the recording chambers for 120 seconds and then 40 μM acetylcholine was applied for 1 second and immediately washed off with external recording solution for 60 seconds. […]
Background: The patch-clamp technique gives a direct electrical read-out from membranes.

Setting [1] is: automated patch-clamp electrophysiology functional assay (Assay A), potency class by EC50, read-out: α7 nAChR Potency.
Where [2] appears, read: electrophysiology EC50, HEK cells expressing human α7/RIC-3, 40 μM acetylcholine, holding potential −60 mV, room temperature, read-out: α7 nAChR EC50.

Where two headings read alike, the source gives them in different places.

T1 sequence (P36544 23-502): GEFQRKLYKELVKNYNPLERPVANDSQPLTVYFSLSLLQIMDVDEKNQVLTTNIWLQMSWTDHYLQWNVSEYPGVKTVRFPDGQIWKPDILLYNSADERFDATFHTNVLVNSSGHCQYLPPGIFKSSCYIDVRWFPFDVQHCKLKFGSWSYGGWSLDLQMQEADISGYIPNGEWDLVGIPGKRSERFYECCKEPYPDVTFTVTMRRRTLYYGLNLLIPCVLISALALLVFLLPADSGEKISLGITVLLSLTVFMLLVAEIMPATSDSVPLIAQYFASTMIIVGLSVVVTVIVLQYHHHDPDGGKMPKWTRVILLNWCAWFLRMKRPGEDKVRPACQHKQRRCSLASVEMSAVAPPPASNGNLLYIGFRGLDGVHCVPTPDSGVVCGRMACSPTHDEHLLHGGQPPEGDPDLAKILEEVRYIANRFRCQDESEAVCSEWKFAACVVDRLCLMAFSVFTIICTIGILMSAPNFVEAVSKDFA

Regarding `NS(=O)(=O)c1ccc([C@@H]2C[C@H]2c2nc(C3CCCC3)no2)cc1` [Example D21], the EC50 under setting [1] lay within 100 to 500 nM and the EC50 under setting [2] came to 130 nM.
For `CC1(C)[C@@H](c2ccc(S(C)(=O)=O)cc2)[C@@H]1c1nc(-c2ccccc2)no1` (relative stereo) [Example 33] the same measures were 500 to 5000 nM and 1100 nM.
For `CC1(C)[C@@H](c2ccc(S(N)(=O)=O)cc2)[C@@H]1c1noc(-c2c[nH]c(C3CC3)n2)n1` [Example I8] the same measures were 500 to 5000 nM and 4400 nM.
For `CC1(C)[C@@H](c2ccc(S(N)(=O)=O)cc2)[C@@H]1c1nnc(-c2ccccc2)o1` [Example G1] the same measures were 500 to 5000 nM and 1800 nM.
For `CC1(C)[C@@H](c2ccc(S(N)(=O)=O)cc2)[C@@H]1c1nnc(-c2cccc(F)c2)o1` [Example G3], the EC50 under setting [1] was in the range of 500 to 5000 nM and the EC50 under setting [2] amounted to 740 nM.
For `CC1(C)[C@H](c2ccc(S(N)(=O)=O)cc2)[C@H]1c1nc(-c2cccc(Br)c2)no1` [Example A14], the EC50 under setting [1] was in the range of 500 to 5000 nM.
As for `CC1(C)[C@@H](c2ccc(S(N)(=O)=O)cc2)[C@@H]1c1noc(-c2c(F)ccc(F)c2F)n1` [Example 3, 4-((1S,3S)-2,2-Dimethyl-3-(5-(2,3,6-trifluorophenyl)-1,2,4-oxadiazol-3-yl)cyclopropyl) benzenesulfonamide], the EC50 is, setting by setting: under setting [1], no more than 100 nM; under setting [2], 83 nM.
The matching figures for `NS(=O)(=O)c1ccc([C@@H]2C[C@H]2c2cn(-c3cccc(F)c3)nn2)cc1` [Example 26, 4-{(1R,2R)-2-[1-(3-Fluorophenyl)-1H-1,2,3-triazol-4-yl]cyclopropyl}benzenesulfonamide]: 500 to 5000 nM and 1600 nM.
Consider `CC1(C)[C@@H](c2ccc(S(N)(=O)=O)cc2)[C@@H]1c1noc(-c2cnccc2C(F)(F)F)n1` [Example I20], for which the EC50 under setting [1] was in the range of 100 to 500 nM.
Regarding `NS(=O)(=O)c1ccc([C@@H]2[C@@H](c3nsc(N4CCCCC4)n3)C2(F)F)cc1` [Example L12], the EC50 under setting [1] is 100 to 500 nM.
With `CC1(C)[C@H](c2ccc(S(N)(=O)=O)cc2)[C@H]1c1nc(-c2ccccc2F)co1` [Example J1], the EC50 reads like this: under setting [1], 500 to 5000 nM; under setting [2], 1200 nM.
For `NS(=O)(=O)c1ccc([C@@H]2C[C@H]2c2nc(-c3cccc(F)c3F)no2)cc1` [Example C15] the same measures were 100 to 500 nM and 340 nM.
For `NS(=O)(=O)c1ccc([C@H]2C[C@@H]2c2nc(-c3ccccc3)no2)cc1` [Example A5] the same measures were 5000 to 50000 nM and 7300 nM.
Regarding `NS(=O)(=O)c1ccc(C2C(c3nc(-c4ccccc4)no3)C23CCCC3)cc1` (single isomer, unassigned) [Example M3], the EC50 is no more than 100 nM under setting [1] and 83 nM under setting [2].
As for `CC1(C)[C@@H](c2ccc(S(N)(=O)=O)cc2)[C@@H]1c1nc(-c2cncc(F)c2)no1` [Example D6], the EC50 under setting [1] fell in the range of 500 to 5000 nM and the EC50 under setting [2] amounted to 820 nM.
Consider `CC1(C)[C@H](c2ccc(S(N)(=O)=O)cc2)[C@H]1c1nc(C2(c3ccccc3)CC2)no1` [Example B13], for which the EC50 under setting [1] is 500 to 5000 nM and the EC50 under setting [2] is 4100 nM.
The matching figures for `CC1(C)[C@@H](c2ccc(S(N)(=O)=O)cc2)[C@@H]1c1nc(-c2ccc(F)cc2F)co1` [Example K3]: 100 to 500 nM and 380 nM.
On to `CC1(C)[C@@H](c2ccc(S(N)(=O)=O)cc2)[C@@H]1c1noc(-c2cscn2)n1` [Example I6], for which the EC50 under setting [1] is 500 to 5000 nM.
Regarding `NS(=O)(=O)c1ccc([C@@H]2C[C@H]2c2nc(-c3ccccc3)cs2)cc1` [Example K9], the EC50 by setting is: under setting [1], 500 to 5000 nM; under setting [2], 670 nM.
`CC(=O)N1CCC(c2noc([C@@H]3[C@@H](c4ccc(S(N)(=O)=O)cc4)C3(C)C)n2)CC1` [Example B16]: the EC50 under setting [1] was in the range of 500 to 5000 nM and the EC50 under setting [2] is 2200 nM.
As for `CC1(C)[C@@H](c2ccc(S(N)(=O)=O)cc2)[C@@H]1c1noc(-c2ccncc2C(F)(F)F)n1` [Example I19], the EC50 under setting [1] lay within 100 to 500 nM.
The same measure, in the same setting: as for `CC1(C)[C@H](c2ccc(S(N)(=O)=O)cc2)[C@H]1c1nc(C2CCCC2)co1` [Example J8], the figure is 500 to 5000 nM.
As to `CC1(C)[C@@H](c2ccc(S(N)(=O)=O)cc2)[C@@H]1c1noc(C2CC2)n1` [Example I25], the EC50 runs as follows: under setting [1], 500 to 5000 nM; under setting [2], 710 nM.
With `CC1(C)[C@@H](c2ccc(S(N)(=O)=O)cc2)[C@@H]1c1noc(CC2CCCO2)n1` (stereo partly drawn) [Example I15], under setting [1], the EC50 was 500 to 5000 nM.
As to `NS(=O)(=O)c1ccc([C@H]2C[C@@H]2c2cnc(-c3ccccc3)s2)cc1` [Example L22], under setting [1], the EC50 fell in the range of 500 to 5000 nM.
Turning to `Cc1ncoc1-c1nc([C@H]2[C@H](c3ccc(S(N)(=O)=O)cc3)C2(C)C)no1` [Example I7], the EC50 was 500 to 5000 nM under setting [1] and 710 nM under setting [2].
As for `CC1(C)[C@H](c2ccc(S(N)(=O)=O)cc2)[C@H]1c1nnc(-c2ccc(F)cc2F)s1` [Example 5, 4-{(1R,3R)-3-[5-(2,4-Difluorophenyl)-1,3,4-thiadiazol-2-yl]-2,2-dimethylcyclopropyl}benzenesulfonamide], the EC50 under setting [1] was 100 to 500 nM and the EC50 under setting [2] was 180 nM.
For the molecule `Cc1ccc(F)cc1-c1noc([C@H]2[C@H](c3ccc(S(N)(=O)=O)cc3)C2(C)C)n1` [Example 1, 4-((1S,3S)-3-(3-(5-Fluoro-2-methylphenyl)-1,2,4-oxadiazol-5-yl)-2,2-dimethylcyclopropyl)-benzenesulfonamide], the EC50 is 500 to 5000 nM under setting [1] and 4100 nM under setting [2].
For `CC1(C)[C@H](c2ccc(S(N)(=O)=O)cc2)[C@H]1c1nc(C2CCCCC2)no1` [Example 20, 4-((1R,3R)-3-(3-Cyclohexyl-1,2,4-oxadiazol-5-yl)-2,2-dimethylcyclopropyl)benzenesulfonamide] the same measures were 500 to 5000 nM and 660 nM.
For `CC1(C)[C@H](c2ccc(S(N)(=O)=O)cc2)[C@H]1c1nc(-c2cccc(F)c2)no1` [Example A10] the same measures were 500 to 5000 nM and 1100 nM.
For the molecule `CC1(C)[C@@H](c2ccc(S(N)(=O)=O)cc2)[C@@H]1c1nc(-c2cnccc2C(F)(F)F)no1` [Example D2], the EC50 under setting [1] is 500 to 5000 nM.
On the same count and under the same terms, the value for `CC1(C)[C@@H](c2ccc(S(N)(=O)=O)cc2)[C@@H]1c1nc(-c2ccc(F)cc2C(F)(F)F)no1` [Example C2] was 500 to 5000 nM.
`NS(=O)(=O)c1ccc([C@@H]2C[C@H]2c2cnc(C3CCCCC3)o2)cc1` [Example 28, 4-[(1R,2R)-2-(2-Cyclohexyl-1,3-oxazol-5-yl)cyclopropyl]benzenesulfonamide]: the EC50 is, setting by setting: under setting [1], 100 to 500 nM; under setting [2], 460 nM.
For `CC(C)c1noc([C@@H]2[C@@H](c3ccc(S(N)(=O)=O)cc3)C2(F)F)n1` [Example 7, 4-{(1S,3S)-2,2-Difluoro-3-[3-(propan-2-yl)-1,2,4-oxadiazol-5-yl]cyclopropyl}benzenesulfonamide] the same measures were 500 to 5000 nM and 910 nM.
For `CC1(C)[C@@H](c2ccc(S(N)(=O)=O)cc2)[C@@H]1c1noc(-c2ccc(F)cc2Cl)n1` [Example H2] the same measures were 500 to 5000 nM and 510 nM.
The matching figures for `CC1(C)[C@H](c2ccc(S(N)(=O)=O)cc2)[C@H]1c1nc(-c2ccc(F)cc2F)co1` [Example J2]: 500 to 5000 nM and 730 nM.
As for `NS(=O)(=O)c1ccc([C@@H]2C[C@H]2c2nc(C3CC(F)(F)C3)no2)cc1` [Example D19], the EC50 under setting [1] lay within 500 to 5000 nM.
